Tested on: T1, LoTRE1
T1 construct: whole coding region incl. predicted signal peptide (1-25) by primers (ORF 1839 bp, 612 aa, 70833 Da); E. coli Rosetta (DE3), Ni-NTA; ~70 kDa
Test: […],5-dinitrosalicylic acid assay of released glucose
Assay type: biochemical, Lissorhoptrus oryzophilus
Settings: PBS, pH 7.0, 50 °C, 30 min; substrate 1-10 mmol/L (Km above tested range)

- Km: 48.6 mM
SMILES: OC[C@H]1O[C@H](O[C@H]2O[C@H](CO)[C@@H](O)[C@H](O)[C@H]2O)[C@H](O)[C@@H](O)[C@@H]1O [trehalose]

From PMC9604388, “Purification and Functional Characterization of a Soluble Trehalase in Lissorhoptrus oryzophilus (Coleoptera: Curculionidae)” (Insects, 2022)
